# Test results: patent EP2818471A1, “Nitrogen bicyclic compounds as inhibitors for Scyl1 and Grk5” (Max-Planck-Gesellschaft zur Förderung der Wissenschaften …, priority 2013, dated 2014)
# Test system: beta-TC6 cells
# Test: Insulin HTRF assay, relative activity Ar normalized to sunitinib
# Format: cell-based
# Conditions: Mus musculus, normalized to positive control sunitinib (5 µM = 100%), Table 10
# Outline: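 Relative activity Ar was scaled between 0% and 100% controls, with sunitinib at 5 µM f.c. as reference. Insulin released by beta-TC6 cells was quantified by sandwich HTRF (Eu-cryptate/XL665 antibodies, 120 min RT). Cells had been seeded 24 or 48 h, then treated 2–4 h at 37°C in induction buffer, 0.5% DMSO.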
row,Structure (SMILES),Emax
1,"CN(C)CCNC(=O)c1ccc(-c2cn3c(-c4ccc(N(C)C)cc4)cnc3cn2)cc1 [compound 289, N-(2-dimethylaminoethyl)-4-[3-(4-dimethylaminophenyl)imidazo[1,2-a]pyrazin-6-yl]benzamide]",50 to 100%
2,"CN(C)c1ccc(-c2cnc3cnc(-c4ccc(C(=O)NCCO)cc4)cn23)cc1 [compound 290, 4-[3-(4-dimethylaminophenyl)imidazo[1,2-a]pyrazin-6-yl]-N-(2-hydroxyethyl)benzamide]",50 to 100%
3,"CN(C)c1ccc(-c2cnc3cnc(-c4ccc(C(=O)N5CCOCC5)cc4)cn23)cc1 [compound 291, [4-[3-(4-dimethylaminophenyl)imidazo[1,2-a]pyrazin-6-yl]phenyl]-morpholino-methanone]",20 to 50%
4,"CN(C)c1ccc(-c2cnc3cnc(-c4cccc(C(N)=O)c4)cn23)cc1 [compound 292, 3-[3-(4-dimethylaminophenyl)imidazo[1,2-a]pyrazin-6-yl]benzamide]",20 to 50%
5,"CN(C)C(=O)c1cccc(-c2cn3c(-c4ccc(N(C)C)cc4)cnc3cn2)c1 [compound 293, 3-[3-(4-dimethylaminophenyl)imidazo[1,2-a]pyrazin-6-yl]-N,N-dimethyl-benzamide]",20 to 50%
6,"CN(C)c1ccc(-c2cnc3cnc(-c4ccccc4Cl)cn23)cc1 [compound 294, 4-[6-(2-chlorophenyl)imidazo[1,2-a]pyrazin-3-yl]-N,N-dimethyl-aniline]",20 to 50%
7,"CN(C)c1ccc(-c2cnc3cnc(-c4cccc(NS(C)(=O)=O)c4)cn23)cc1 [compound 295, N-[3-[3-(4-dimethylaminophenyl)imidazo[1,2-a]pyrazin-6-yl]phenyl]methanesulfonamide]",20 to 50%
8,"c1ccc(-c2cnc3cnc(-c4ccsc4)cn23)cc1 [compound 296, 3-phenyl-6-(3-thienyl)imidazo[1,2-a]pyrazine]",20 to 50%
9,"Fc1cccc(-c2cn3c(-c4ccccc4)cnc3cn2)c1 [compound 297, 6-(3-fluorophenyl)-3-phenyl-imidazo[1,2-a]pyrazine]",20 to 50%
10,"c1ccc(-c2cnc3cnc(-c4cccs4)cn23)cc1 [compound 298, 3-phenyl-6-(2-thienyl)imidazo[1,2-a]pyrazine]",20 to 50%
11,"O=C(NC1CC1)c1ccc(-c2cn3c(-c4ccccc4)cnc3cn2)cc1 [compound 299, N-cyclopropyl-4-(3-phenylimidazo[1,2-a]pyrazin-6-yl)benzamide]",20 to 50%
12,"c1ccc(-c2cn3c(-c4ccc5c(c4)OCO5)cnc3cn2)cc1 [compound 300, 3-(1,3-benzodioxol-5-yl)-6-phenyl-imidazo[1,2-a]pyrazine]",50 to 100%
13,"c1cc(-c2cn3c(-c4ccc5c(c4)OCO5)cnc3cn2)cs1 [compound 301, 3-(1,3-benzodioxol-5-yl)-6-(3-thienyl)imidazo[1,2-a]pyrazine]",50 to 100%
14,"CCOc1cccc(-c2cn3c(-c4ccc5c(c4)OCO5)cnc3cn2)c1 [compound 302, 3-(1,3-benzodioxol-5-yl)-6-(3-ethoxyphenyl)imidazo[1,2-a]pyrazine]",50 to 100%
15,"Clc1cccc(-c2cn3c(-c4ccc5c(c4)OCO5)cnc3cn2)c1 [compound 303, 3-(1,3-benzodioxol-5-yl)-6-(3-chlorophenyl)imidazo[1,2-a]pyrazine]",50 to 100%
16,"Fc1cccc(-c2cn3c(-c4ccc5c(c4)OCO5)cnc3cn2)c1 [compound 304, 3-(1,3-benzodioxol-5-yl)-6-(3-fluorophenyl)imidazo[1,2-a]pyrazine]",50 to 100%
17,"Cc1ccccc1-c1cn2c(-c3ccc4c(c3)OCO4)cnc2cn1 [compound 305, 3-(1,3-benzodioxol-5-yl)-6-(o-tolyl)imidazo[1,2-a]pyrazine]",20 to 50%
18,"c1csc(-c2cn3c(-c4ccc5c(c4)OCO5)cnc3cn2)c1 [compound 306, 3-(1,3-benzodioxol-5-yl)-6-(2-thienyl)imidazo[1,2-a]pyrazine]",50 to 100%

row,Structure (SMILES),Emax
1,"c1ccc(Cn2cc(-c3cn4c(-c5ccc6c(c5)OCO6)cnc4cn3)cn2)cc1 [compound 307, 3-(1,3-benzodioxol-5-yl)-6-(1-benzylpyrazol-4-yl)imidazo[1,2-a]pyrazine]",50 to 100%
2,"COc1cc(OC)cc(-c2cn3c(-c4ccc5c(c4)OCO5)cnc3cn2)c1 [compound 308, 3-(1,3-benzodioxol-5-yl)-6-(3,5-dimethoxyphenyl)imidazo[1,2-a]pyrazine]",50 to 100%
3,"Nc1ccc(-c2cn3c(-c4ccc5c(c4)OCO5)cnc3cn2)cn1 [compound 309, 5-[3-(1,3-benzodioxol-5-yl)imidazo[1,2-a]pyrazin-6-yl]pyridin-2-amine]",10 to 20%
4,"CC(C)Oc1cccc(-c2cn3c(-c4ccc5c(c4)OCO5)cnc3cn2)c1 [compound 310, 3-(1,3-benzodioxol-5-yl)-6-(3-isopropoxyphenyl)imidazo[1,2-a]pyrazine]",50 to 100%
5,"c1ccc(Oc2ccccc2-c2cn3c(-c4ccncc4)cnc3cn2)cc1 [compound 311, 6-(2-phenoxyphenyl)-3-(4-pyridyl)imidazo[1,2-a]pyrazine]",20 to 50%
6,"Cc1cc(-c2cn3c(-c4ccncc4)cnc3cn2)cc(C)c1O [compound 312, 2,6-dimethyl-4-[3-(4-pyridyl)imidazo[1,2-a]pyrazin-6-yl]phenol]",20 to 50%
7,"c1csc(-c2cn3c(-c4ccncc4)cnc3cn2)c1 [compound 314, 3-(4-pyridyl)-6-(2-thienyl)imidazo[1,2-a]pyrazine]",20 to 50%
8,"c1cncc(-c2cnc3cnc(-c4ccc(N5CCOCC5)cc4)cn23)c1 [compound 315, 4-[4-[3-(3-pyridyl)imidazo[1,2-a]pyrazin-6-yl]phenyl]morpholine]",20 to 50%
9,"c1cncc(-c2cnc3cnc(-c4cc5ccccc5s4)cn23)c1 [compound 316, 6-(benzothiophen-2-yl)-3-(3-pyridyl)imidazo[1,2-a]pyrazine]",20 to 50%
10,"CSc1ccc(-c2cn3c(-c4cccnc4)cnc3cn2)cc1 [compound 317, 6-(4-methylsulfanylphenyl)-3-(3-pyridyl)imidazo[1,2-a]pyrazine]",20 to 50%
11,"CS(=O)(=O)Nc1cccc(-c2cn3c(-c4cccnc4)cnc3cn2)c1 [compound 318, N-[3-[3-(3-pyridyl)imidazo[1,2-a]pyrazin-6-yl]phenyl]methanesulfonamide]",20 to 50%
12,"c1coc(-c2cn3c(-c4ccsc4)cnc3cn2)c1 [compound 319, 6-(2-furyl)-3-(3-thienyl)imidazo[1,2-a]pyrazine]",20 to 50%
13,"Fc1ccc(-c2cn3c(-c4ccsc4)cnc3cn2)cc1Cl [compound 320, 6-(3-chloro-4-fluoro-phenyl)-3-(3-thienyl)imidazo[1,2-a]pyrazine]",20 to 50%
14,"O=C(NCCO)c1ccc(-c2cn3c(-c4ccsc4)cnc3cn2)cc1 [compound 321, N-(2-hydroxyethyl)-4-[3-(3-thienyl)imidazo[1,2-a]pyrazin-6-yl]benzamide]",10 to 20%
15,"c1csc(-c2cn3c(-c4ccsc4)cnc3cn2)c1 [compound 322, 6-(2-thienyl)-3-(3-thienyl)imidazo[1,2-a]pyrazine]",50 to 100%
16,"COc1cc(OC)cc(-c2cn3c(-c4ccsc4)cnc3cn2)c1 [compound 323, 6-(3,5-dimethoxyphenyl)-3-(3-thienyl)imidazo[1,2-a]pyrazine]",20 to 50%
17,"Oc1ccc(-c2cnc3cnc(-c4ccc(Cl)cc4)cn23)cc1 [compound 324, 4-[6-(4-chlorophenyl)imidazo[1,2-a]pyrazin-3-yl]phenol]",20 to 50%
